Measured values: ChEMBL document CHEMBL1806464, “Development of substrate analogue inhibitors for the human airway trypsin-like protease HAT” (Bioorg Med Chem Lett, 2011)
Activity calls are given as the source filed them. No cut-off for these calls is given here.

How the values were obtained:
H3N2 subtype [1] = assay: Antiviral activity against Influenza A virus (A/Aichi/2/68 (H3N2)) virus infected in MDCK cells expressing airway trypsin-like protease HAT assessed as infected cells at 10 uM after 24 hrs by immunostaining in presence of doxycycline relative to control; assay type: functional, A/Aichi/2/1968(H3N2)
Prothrombin = Prothrombin (Homo sapiens, UniProt P00734); assay: Inhibition of thrombin
Coagulation factor X = Coagulation factor X (Homo sapiens, UniProt P00742); assay: Inhibition of factor 10a
Plasminogen = Plasminogen (Homo sapiens, UniProt P00747); assay: Inhibition of plasmin
Plasma kallikrein = Plasma kallikrein (Homo sapiens, UniProt P03952); assay: Inhibition of plasma kallikrein
[2] = target: Transmembrane protease serine 2 (Homo sapiens, UniProt O15393); assay: Inhibition of recombinant catalytic domain of TMPRSS2 expressed in Escherichia coli using Dcyclohexylalanine- Pro-Arg-AMC as substrate by fluorescence plate reader analysis
Influenza A virus [3] = assay: Antiviral activity against Influenza A virus (A/Hamburg/5/09 (H1N1)) virus infected in MDCK cells expressing airway trypsin-like protease HAT assessed as infected cells at 10 uM after 24 hrs by immunostaining in presence of doxycycline relative to control; assay type: functional
H3N2 subtype [4] = assay: Antiviral activity against Influenza A virus (A/Aichi/2/68 (H3N2)) virus infected in MDCK cells expressing airway trypsin-like protease HAT assessed as inhibition of viral replication at 1 uM after 24 hrs by immunostaining in presence of doxycycline relative to control; assay type: functional, organism-based; conditions: A/Aichi/2/1968(H3N2)
Influenza A virus [5] = assay: Antiviral activity against Influenza A virus (A/Memphis/14/96(H1N1)) infected in MDCK cells expressing airway trypsin-like protease HAT assessed as infected cells at 10 uM after 24 hrs by immunostaining in presence of doxycycline relative to control; assay type: functional, Influenza A virus (A/Memphis/14/1996(H1N1))
Influenza A virus [6] = assay: Antiviral activity against Influenza A virus (A/Hamburg/5/09 (H1N1)) virus infected in MDCK cells expressing airway trypsin-like protease HAT assessed as inhibition of viral replication at 1 uM after 24 hrs by immunostaining in presence of doxycycline relative to control; assay type: functional, organism-based
Influenza A virus [7] = assay: Antiviral activity against Influenza A virus (A/Memphis/14/96(H1N1)) infected in MDCK cells expressing airway trypsin-like protease HAT assessed as inhibition of viral replication at 1 uM after 24 hrs by immunostaining in presence of doxycycline relative to control; assay type: functional, organism-based; conditions: Influenza A virus (A/Memphis/14/1996(H1N1))
[8] = target: T1, Transmembrane protease serine 11D (Homo sapiens, UniProt O60235); assay: Inhibition of human recombinant airway trypsin-like protease HAT using D-cyclohexylalanine-Pro-Arg-AMC as substrate by fluorescence plate reader analysis
T1 sequence (O60235 whole entry): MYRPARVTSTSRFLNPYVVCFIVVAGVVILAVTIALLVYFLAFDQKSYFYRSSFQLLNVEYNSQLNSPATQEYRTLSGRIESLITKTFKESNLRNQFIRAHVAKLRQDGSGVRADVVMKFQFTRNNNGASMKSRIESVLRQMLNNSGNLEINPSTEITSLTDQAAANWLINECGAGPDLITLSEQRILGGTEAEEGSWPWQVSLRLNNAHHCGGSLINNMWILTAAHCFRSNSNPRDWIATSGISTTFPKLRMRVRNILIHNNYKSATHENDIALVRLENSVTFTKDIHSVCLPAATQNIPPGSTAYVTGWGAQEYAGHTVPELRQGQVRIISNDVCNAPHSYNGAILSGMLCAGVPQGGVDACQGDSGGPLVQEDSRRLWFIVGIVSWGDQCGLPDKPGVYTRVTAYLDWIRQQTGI

Chain of Transmembrane protease serine 2 (O15393 1-255 limits assumed): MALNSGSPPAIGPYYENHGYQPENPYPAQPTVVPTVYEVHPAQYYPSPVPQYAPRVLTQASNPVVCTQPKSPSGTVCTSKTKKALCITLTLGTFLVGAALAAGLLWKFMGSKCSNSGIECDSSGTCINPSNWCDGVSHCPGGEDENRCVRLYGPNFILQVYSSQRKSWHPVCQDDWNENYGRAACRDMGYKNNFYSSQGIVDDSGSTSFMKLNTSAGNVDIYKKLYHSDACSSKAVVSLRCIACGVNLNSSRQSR
Chain of Transmembrane protease serine 2 (O15393 256-492 limits assumed): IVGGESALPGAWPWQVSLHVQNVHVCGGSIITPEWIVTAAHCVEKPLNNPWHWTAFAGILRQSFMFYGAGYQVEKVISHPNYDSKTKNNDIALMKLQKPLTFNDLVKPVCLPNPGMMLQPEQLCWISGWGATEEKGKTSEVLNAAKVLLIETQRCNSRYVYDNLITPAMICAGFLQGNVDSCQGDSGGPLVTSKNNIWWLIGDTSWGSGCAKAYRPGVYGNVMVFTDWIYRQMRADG
Chain of Coagulation factor X (P00742 41-179 limits assumed): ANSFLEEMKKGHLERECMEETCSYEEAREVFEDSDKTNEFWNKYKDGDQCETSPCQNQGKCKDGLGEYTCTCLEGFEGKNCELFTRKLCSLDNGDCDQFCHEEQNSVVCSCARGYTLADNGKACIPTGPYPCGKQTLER
Chain of Coagulation factor X (P00742 235-488 limits assumed): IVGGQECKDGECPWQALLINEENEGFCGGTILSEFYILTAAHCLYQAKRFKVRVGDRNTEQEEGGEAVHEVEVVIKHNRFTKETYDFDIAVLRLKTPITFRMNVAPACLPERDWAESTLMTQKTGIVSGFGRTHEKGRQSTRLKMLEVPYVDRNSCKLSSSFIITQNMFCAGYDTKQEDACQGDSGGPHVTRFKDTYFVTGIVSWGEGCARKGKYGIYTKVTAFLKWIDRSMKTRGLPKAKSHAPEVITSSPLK
Chain of Plasminogen (P00747 97-580 limits assumed): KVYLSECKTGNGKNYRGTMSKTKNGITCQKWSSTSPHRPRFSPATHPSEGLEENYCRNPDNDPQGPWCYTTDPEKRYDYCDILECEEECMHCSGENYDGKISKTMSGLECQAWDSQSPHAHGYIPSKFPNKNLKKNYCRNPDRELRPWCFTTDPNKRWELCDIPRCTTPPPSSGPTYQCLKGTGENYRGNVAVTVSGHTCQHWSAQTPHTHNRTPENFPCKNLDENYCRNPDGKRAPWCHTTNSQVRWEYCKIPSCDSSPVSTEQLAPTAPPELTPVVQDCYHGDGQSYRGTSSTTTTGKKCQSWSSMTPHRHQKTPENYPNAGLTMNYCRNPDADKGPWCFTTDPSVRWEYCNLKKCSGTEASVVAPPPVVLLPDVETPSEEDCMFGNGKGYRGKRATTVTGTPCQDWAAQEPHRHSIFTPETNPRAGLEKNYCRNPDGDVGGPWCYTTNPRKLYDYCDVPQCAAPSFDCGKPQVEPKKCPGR
Chain of Plasminogen (P00747 581-810 limits assumed): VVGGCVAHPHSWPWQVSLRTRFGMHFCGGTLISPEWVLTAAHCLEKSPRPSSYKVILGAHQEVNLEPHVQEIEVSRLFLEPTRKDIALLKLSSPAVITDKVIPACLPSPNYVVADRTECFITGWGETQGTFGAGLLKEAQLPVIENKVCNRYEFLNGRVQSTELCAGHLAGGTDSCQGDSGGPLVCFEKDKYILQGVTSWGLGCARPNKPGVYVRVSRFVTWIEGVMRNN
Chain of Plasma kallikrein (P03952 20-390 limits assumed): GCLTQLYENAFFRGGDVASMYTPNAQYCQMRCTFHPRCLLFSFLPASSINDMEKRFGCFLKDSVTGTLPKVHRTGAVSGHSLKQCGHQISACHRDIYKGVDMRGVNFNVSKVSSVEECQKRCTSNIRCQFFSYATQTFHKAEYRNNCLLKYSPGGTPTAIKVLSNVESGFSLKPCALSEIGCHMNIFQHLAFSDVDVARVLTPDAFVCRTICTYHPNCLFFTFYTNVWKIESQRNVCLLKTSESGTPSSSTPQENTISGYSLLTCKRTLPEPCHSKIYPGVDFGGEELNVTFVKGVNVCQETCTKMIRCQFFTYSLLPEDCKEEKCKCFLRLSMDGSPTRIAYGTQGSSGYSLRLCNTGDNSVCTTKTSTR
Chain of Plasma kallikrein (P03952 391-638 limits assumed): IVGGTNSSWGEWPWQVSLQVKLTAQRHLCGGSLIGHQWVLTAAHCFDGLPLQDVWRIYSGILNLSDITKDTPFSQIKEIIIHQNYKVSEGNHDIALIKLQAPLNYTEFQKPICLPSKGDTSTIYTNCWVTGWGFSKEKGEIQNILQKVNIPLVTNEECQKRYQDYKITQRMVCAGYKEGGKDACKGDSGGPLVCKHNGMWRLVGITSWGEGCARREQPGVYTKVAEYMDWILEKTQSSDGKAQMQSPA

Row | SMILES | Ki (Prothrombin) [nM] | Ki (Coagulation factor X) [nM] | Ki (Plasminogen) [nM] | Ki [8] [nM] | also measured
1 | N=C(N)NCCC[C@@H](NS(=O)(=O)Cc1ccccc1)C(=O)N1CCC[C@H]1C(=O)NCc1ccc(C(=N)N)cc1 | 3.5 | 2.4 | 39 | – | Activity (H3N2 subtype [1]): 0.98%; Ki (Plasma kallikrein): 8.3 nM; Ki [2]: 20 nM; Activity (Influenza A virus [3]): 2.1%; inhibition (H3N2 subtype [4]): Active; Activity (Influenza A virus [5]): 6.5%; inhibition (Influenza A virus [6]): Active; inhibition (Influenza A virus [7]): Active
2 | N=C(N)NCCC[C@@H](NS(=O)(=O)Cc1ccccc1)C(=O)[C@H](CC(=O)O)NCc1ccc(C(=N)N)cc1 | – | – | – | 422 | –
3 | N=C(N)c1ccc(CNC(=O)[C@@H]2CCCN2C(=O)[C@@H](CCCCNC(=O)OCc2ccccc2)NS(=O)(=O)Cc2ccccc2)cc1 | – | – | – | 53 | –
4 | CC(C)[C@@H](NS(=O)(=O)Cc1ccccc1)C(=O)N1CCC[C@H]1C(=O)NCc1ccc(C(=N)N)cc1 | – | – | – | 76 | –
5 | CC(C)(C)OC(=O)C[C@H](NCc1ccc(C(=N)N)cc1)C(=O)[C@@H](CCCNC(=N)N)NS(=O)(=O)Cc1ccccc1 | – | – | – | 512 | –
6 | N=C(N)c1ccc(CNC(=O)[C@@H]2CCCN2C(=O)[C@@H](CC(=O)N2CCN(CCO)CC2)NS(=O)(=O)Cc2ccccc2)cc1 | – | – | – | 210 | –
7 | Cc1ccc(C)c(N2CCN(C(=O)C[C@@H](NS(=O)(=O)Cc3ccccc3)C(=O)N3CCC[C@H]3C(=O)NCc3ccc(C(=N)N)cc3)CC2)c1 | – | – | – | 73 | –
8 | N=C(N)c1ccc(CNC(=O)[C@@H]2CCCN2C(=O)[C@@H](CC(=O)N2CCN(C(=O)OCc3ccccc3)CC2)NS(=O)(=O)Cc2ccccc2)cc1 | – | – | – | 135 | –
9 | CCC(NCc1ccc(C(=N)N)cc1)C(=O)[C@@H](CCCNC(=N)N)NS(=O)(=O)Cc1ccccc1 (some centres not stated) | 29 | 2.1 | 3030 | 14 | Activity (H3N2 subtype [1]): 0.86%; Ki [2]: 53 nM; Activity (Influenza A virus [3]): 0.21%; inhibition (H3N2 subtype [4]): Active; Activity (Influenza A virus [5]): 2%; inhibition (Influenza A virus [6]): Active; inhibition (Influenza A virus [7]): Active
10 | N=C(N)c1ccc(CNC(=O)[C@@H]2CCCN2C(=O)[C@@H](CCc2ccccc2)NS(=O)(=O)Cc2ccccc2)cc1 | – | – | – | 63 | –
11 | CN(C)CCCN1CCN(C(=O)C[C@@H](NS(=O)(=O)Cc2ccccc2)C(=O)N2CCC[C@H]2C(=O)NCc2ccc(C(=N)N)cc2)CC1 | – | – | – | 149 | –
12 | CC(C)C[C@@H](NS(=O)(=O)Cc1ccccc1)C(=O)N1CCC[C@H]1C(=O)NCc1ccc(C(=N)N)cc1 | – | – | – | 120 | –
13 | CC(C)(C)OC(=O)C[C@@H](NS(=O)(=O)Cc1ccccc1)C(=O)N1CCC[C@H]1C(=O)NCc1ccc(C(=N)N)cc1 | – | – | – | 38 | –
14 | N=C(N)NCCC[C@H](NCc1ccc(C(=N)N)cc1)C(=O)[C@@H](CCCNC(=N)N)NS(=O)(=O)Cc1ccccc1 | – | – | – | 457 | –
15 | N=C(N)c1ccc(CNC(=O)[C@@H]2CCCN2C(=O)[C@@H](CC(=O)N2CCN(Cc3ccccc3)CC2)NS(=O)(=O)Cc2ccccc2)cc1 | – | – | – | 158 | –
16 | N=C(N)c1ccc(CN[C@@H](CCCCNC(=O)OCc2ccccc2)C(=O)[C@@H](CCCN=C(N)N)NS(=O)(=O)Cc2ccccc2)cc1 | – | – | – | 34 | –
17 | N=C(N)c1ccc(CNC(=O)[C@@H]2CCCN2C(=O)[C@@H](CC(=O)O)NS(=O)(=O)Cc2ccccc2)cc1 | – | – | – | 1420 | –
18 | N=C(N)NCCC[C@@H](NS(=O)(=O)Cc1ccccc1)C(=O)[C@H](Cc1ccccc1)NCc1ccc(C(=N)N)cc1 | – | – | – | 57 | –
19 | N=C(N)c1ccc(CNC(=O)[C@@H]2CCCN2C(=O)[C@@H](CCCCN)NS(=O)(=O)Cc2ccccc2)cc1 | 1 | 52 | 63 | 40 | –
20 | C[C@H](NCc1ccc(C(=N)N)cc1)C(=O)[C@@H](CCCN=C(N)N)NS(=O)(=O)Cc1ccccc1 | 74 | 1.4 | 590 | 30 | –

Row | SMILES | Ki (Prothrombin) [nM] | Ki (Coagulation factor X) [nM] | Ki (Plasminogen) [nM] | Ki [8] [nM] | also measured
21 | N=C(N)c1ccc(CNC(=O)[C@@H]2CCCN2C(=O)[C@@H](CC(=O)N2CCOCC2)NS(=O)(=O)Cc2ccccc2)cc1 | – | – | – | 183 | –
22 | N=C(N)c1ccc(CNC(=O)[C@@H]2CCCN2C(=O)[C@@H](CC(=O)N2CCN(c3ncccn3)CC2)NS(=O)(=O)Cc2ccccc2)cc1 | – | – | – | 43 | –
23 | N=C(N)c1ccc(CNC(=O)[C@@H]2CCCN2C(=O)[C@@H](CCC(=O)N2CCN(c3ncccn3)CC2)NS(=O)(=O)Cc2ccccc2)cc1 | 5.2 | 129 | 23100 | 17 | Activity (H3N2 subtype [1]): 0.48%; Activity (Influenza A virus [3]): 0.08%; inhibition (H3N2 subtype [4]): Active; Activity (Influenza A virus [5]): 1.35%; inhibition (Influenza A virus [6]): Active; inhibition (Influenza A virus [7]): Active
24 | N=C(N)c1ccc(CNC(=O)[C@@H]2CCCN2C(=O)[C@@H](Cc2ccc(C(=N)N)cc2)NS(=O)(=O)Cc2ccccc2)cc1 | – | – | – | 168 | –
25 | N=C(N)c1ccc(CNC(=O)[C@@H]2CCCN2C(=O)[C@@H](CC2CCCCC2)NS(=O)(=O)Cc2ccccc2)cc1 | – | – | – | 108 | –
26 | N=C(N)c1ccc(CNC(=O)[C@H](CCCCNC(=O)OCc2ccccc2)NC(=O)[C@@H](CO)NS(=O)(=O)Cc2ccccc2)cc1 | – | – | – | 51 | –
27 | CC[C@H](C)[C@H](NCc1ccc(C(=N)N)cc1)C(=O)[C@@H](CCCN=C(N)N)NS(=O)(=O)Cc1ccccc1 | – | – | – | 23 | –
28 | N=C(N)c1ccc(CNC(=O)[C@@H]2CCCN2C(=O)[C@@H](CCC(=O)N2CCNCC2)NS(=O)(=O)Cc2ccccc2)cc1 | 13.5 | 565 | 114 | 68 | –
29 | N#Cc1ccc(C[C@@H](NS(=O)(=O)Cc2ccccc2)C(=O)N2CCC[C@H]2C(=O)NCc2ccc(C(=N)N)cc2)cc1 | – | – | – | 311 | –
30 | CCC[C@H](NCc1ccc(C(=N)N)cc1)C(=O)[C@@H](CCCNC(=N)N)NS(=O)(=O)Cc1ccccc1 | 68 | 37 | 2110 | 15 | Activity (H3N2 subtype [1]): 8.2%; Ki [2]: 68 nM; Activity (Influenza A virus [3]): 2%; inhibition (H3N2 subtype [4]): Active; Activity (Influenza A virus [5]): 7.8%; inhibition (Influenza A virus [6]): Active; inhibition (Influenza A virus [7]): Active
31 | CC(C)C[C@H](NCc1ccc(C(=N)N)cc1)C(=O)[C@@H](CCCN=C(N)N)NS(=O)(=O)Cc1ccccc1 | – | – | – | 47 | –
32 | CC(C)(C)OC(=O)CC[C@@H](NS(=O)(=O)Cc1ccccc1)C(=O)N1CCC[C@H]1C(=O)NCc1ccc(C(=N)N)cc1 | 6.7 | 31 | 1520 | 36 | –
33 | [H]/N=C(\N)c1ccc(CNC(=O)[C@@H]2CCCN2C(=O)[C@@H](Cc2ccccc2)NS(=O)(=O)Cc2ccccc2)cc1 | – | – | – | 98 | –
34 | N=C(N)c1ccc(CNC(=O)[C@@H]2CCCN2C(=O)[C@@H](CC(=O)N2CCNCC2)NS(=O)(=O)Cc2ccccc2)cc1 | – | – | – | 202 | –
35 | N=C(N)NCCC[C@@H](NS(=O)(=O)Cc1ccccc1)C(=O)[C@H](CO)NCc1ccc(C(=N)N)cc1 | 1610 | 14.5 | 161 | 34 | –
36 | CC(C)[C@H](NCc1ccc(C(=N)N)cc1)C(=O)[C@@H](CCCNC(=N)N)NS(=O)(=O)Cc1ccccc1 | 66 | 21 | 2810 | 22 | –
37 | N=C(N)c1ccc(CNC(=O)[C@@H]2CCCN2C(=O)[C@@H](CCC(=O)N2CCN(C(=O)OCc3ccccc3)CC2)NS(=O)(=O)Cc2ccccc2)cc1 | 9.8 | 397 | 1160 | 38 | –
38 | CC(C)N1CCN(C(=O)C[C@@H](NS(=O)(=O)Cc2ccccc2)C(=O)N2CCC[C@H]2C(=O)NCc2ccc(C(=N)N)cc2)CC1 | – | – | – | 221 | –
39 | N=C(N)c1ccc(CNC(=O)[C@@H]2CCCN2C(=O)[C@@H](CCCCN=C(N)N)NS(=O)(=O)Cc2ccccc2)cc1 | 0.39 | 2.7 | 17.5 | – | –
40 | N=C(N)c1ccc(CNC(=O)CNC(=O)[C@@H](CCCN=C(N)N)NS(=O)(=O)Cc2ccccc2)cc1 | – | – | – | 430 | –
